Data on three compounds can be found in publication PMC7594877, “Multidirectional in vitro and in cellulo studies as a tool for identification of multi-target-directed ligands aiming at symptoms and causes of Alzheimer’s disease” (Journal of Enzyme Inhibition and Medicinal Chemistry, 2020).

Usually pIC50 stands for the IC50 on a negative log10 scale, so that one unit is a factor of ten. By pKi is commonly meant the negative decadic logarithm of the Ki, by convention in mol/L.

Data set [1] deals with T1, tau (Homo sapiens, UniProt P10636).
T1 construct: expressed in transfected cells; host or cells: E. coli BL21 (DE3) with pTARA (T7 RNA polymerase under pBAD) and pRKT42
T1 sequence (P10636 other isoform, or with tags, fused parts or gaps): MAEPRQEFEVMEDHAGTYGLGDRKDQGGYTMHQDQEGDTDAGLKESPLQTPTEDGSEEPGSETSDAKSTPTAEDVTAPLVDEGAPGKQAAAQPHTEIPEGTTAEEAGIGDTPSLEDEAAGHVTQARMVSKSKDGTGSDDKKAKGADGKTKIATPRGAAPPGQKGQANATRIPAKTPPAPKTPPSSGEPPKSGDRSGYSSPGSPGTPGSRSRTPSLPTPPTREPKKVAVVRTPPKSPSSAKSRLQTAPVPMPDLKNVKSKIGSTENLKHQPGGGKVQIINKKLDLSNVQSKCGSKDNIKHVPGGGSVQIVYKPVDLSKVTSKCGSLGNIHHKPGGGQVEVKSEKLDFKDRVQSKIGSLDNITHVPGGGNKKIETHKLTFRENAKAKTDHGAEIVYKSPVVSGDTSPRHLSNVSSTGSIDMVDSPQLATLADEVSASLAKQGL
Briefly: In cellulo tau aggregation inhibition, Thioflavin S fluorescence in E. coli overexpressing tau. The data set is classed as cell-based, Escherichia coli. The following applies: at 10 µM; mean of three experiments ± SEM. The source says: (§1) We screened multifunctional ligands from our in-house library for their anti-aggregating activity against Aβ and tau in the whole bacterial cells using the Thioflavin S (ThS) fluorescence assay. Bacterial cells overexpressing different proteins provide simple models that can be easily employed to monitor the mechanisms of protein aggregation related to a variety of conformational diseases[36]^,[37]. In our assay, E. coli system has been implemented to study the effect of potential Aβ42 and tau aggregation inhibitors within intact cells. The advantage of the test over in vitro tests is the fact that it considers the complexity of the cellular environment that plays a crucial role in tuning protein aggregation. This assay has been validated and successfully applied to assess the anti-aggregating properties of diverse chemical structures. Previously investigated tetrahydrobenzo[h][1,6] naphthyridine-6-chlorotacrine hybrid DP-128 was used as a reference compound[38]^,[39].
(§2) The assays were conducted according to the procedure described previously. All general chemicals were purchased from Sigma-Aldrich (St. Louis, MO) . Reagents for bacterial media were purchased from Conda (Sevilla, Spain). M9 minimal medium for 100 mL: 10 mL of salts 10× (0.68 g of Na2HPO4, 0.30 g of KH2PO4, 0.05 g of NaCl, 0.10 g of NH4Cl), 0.2 mL of 1 M MgSO4, 0.2 mL of 50 mM CaCl2, 2.5 mL of 20% glucose, and 87.1 mL of H2O.
(§3) E. coli competent cells BL21 (DE3) were transformed with the pET28a vector (Novagen, Inc., Madison, WI) carrying the DNA sequence of Aβ42 or with pTARA containing the RNA polymerase gene of T7 phage (T7RP) under the control of the promoter pBAD, then with pRKT42 vector encoding four repeats of tau protein in two inserts. For overnight culture preparation, 10 ml of M9 minimal medium containing 50 μg/mL of kanamycin (Aβ42) or 50 μg/mL of ampicillin and 12.5 μg/mL of chloramphenicol (tau) were inoculated with a colony of BL21 (DE3) bearing the plasmid Aβ42 or tau plasmids to be expressed at 37 °C and 180 rpm using an incubator shaker (Ovan, Barcelona, Spain). After overnight growth, the OD600 was usually 2 − 2.5. For expression of Aβ42 peptide/tau protein, 200 μL of overnight culture were transferred into Eppendorf tubes of 1.5 mL containing 790 μL of fresh M9 minimal medium with 50 μg/mL of kanamycin1 mM of isopropyl 1-thio-β-D-galactopyranoside (IPTG) (Aβ42) or 50 μg/mL of ampicillin, 12.5 μg/mL of chloramphenicol, 0.25% of arabinose (tau), and 25 μM of ThS and 10 μL of reference, tested compounds (1 mM in DMSO, final concentration: 10 μM) or DMSO. The samples were grown for 24 h at 37 °C and 180 rpm using an incubator shaker (Ovan). The samples with DMSO were prepared as a negative control (maximum level of Aβ42/tau, 0% of inhibition). In the positive controls, the M9 medium without IPTG (minimal level of Aβ42) or arabinose (minimal level of tau) was used. For absorbance and fluorescence determination, 200 μL of each Eppendorf tube was transferred in triplicate into 96-well plate. Finally, the fluorescence emission at 520 nm, when exciting at 440 nm and absorbance at 600 nm was recorded using the multi-mode microplate reader (Beckman Counter, Brea, CA). The absorbance at 600 nm (OD600) of these samples was assessed to check the bacterial growth and potential intrinsic toxicity of the tested compounds. Final data are the average of three independent experiments. DP-128 was used as a reference compound[38].

The target of data set [2] is T2, Aβ42 (Homo sapiens, UniProt P05067).
T2 construct: expressed in transfected cells; host or cells: E. coli BL21 (DE3) with pET28a-Aβ42, IPTG-induced
T2 sequence (P05067 672-713): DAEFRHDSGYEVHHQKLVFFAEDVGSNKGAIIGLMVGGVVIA
Briefly: In cellulo Aβ42 aggregation inhibition, Thioflavin S fluorescence in E. coli overexpressing Aβ42. It counts as cell-based, Escherichia coli. The following applies: at 10 µM; mean of three experiments ± SEM.
From the text: as §1, §2, §3

The subject of another data set is eqBuChE. As to conditions: read-out: eqBuChE IC50; cited from earlier work.
For a further data set, the system named is hAChE. As to conditions: read-out: hAChE IC50; cited from earlier work.
A further data set concerns the target T3, human BACE1 (Homo sapiens, UniProt P56817).
T3 construct: purchased Panvera, Madison, WI (BACE1 FRET Assay Kit); host or cells: baculovirus-expressed
The data set can be described thus: In vitro inhibition of human BACE1, FRET assay. It counts as biochemical. The following applies: mean of three experiments ± SEM; read-out: hBACE1 IC50. The procedure: To further explore the multifunctional profile of the ligands, we screened them for their inhibitory activity against human BACE1 using spectrofluorometric assay (fluorescence resonance energy transfer (FRET)-based). […] Therefore, BACE1 inhibitors are now being tested in earlier stages of AD and in asymptomatic subjects at risk of AD, with the hope of blocking the disease process before it becomes irreversible.
BACE1 FRET Assay Kit (Panvera, Madison, WI) was performed according to the manufacturer’s protocol with small modifications. The Kit includes purified baculovirus-expressed BACE1 and specific peptide substrate (Rh-[…]-quencher), based on the “Swedish” mutant of APP. The analysis was carried, using 384-well black microplates and a microplate reader (EnSpire Multimode; PerkinElmer, Waltham, MA). The wavelength was optimised for the 553 nm excitation and 576 nm emission. Stock solutions of all test compounds were prepared in DMSO and further diluted with assay buffer (50 mM sodium acetate; pH 4.5). In the first step, 10 μL of BACE1 substrate was mixed with 10 μL of test compound (or assay buffer; i.e. blank sample), then 10 μL of the enzyme (1 U/mL) was added to start the reaction. After 60 min of incubation at 25 °C, 10 μL of stop solution (2.5 M sodium acetate) was applied to stop the reaction. The fluorescence signal was read at 576 nm. Percent of inhibition was calculated from [1 − (S60 − S0)/(C60 − C0)] × 100, where S0 and S60 are fluorescence intensities of the test sample (enzyme, substrate, test compound) at the beginning of the reaction and after 60 min, respectively, while C0 and C60 are analogical fluorescence intensities of the blank sample (enzyme, substrate, buffer). […] Each compound was analysed in triplicate. Commercially available BACE1 Inhibitor IV (Calbiochem, Merck; Nottingham, UK) was used as the reference compound. The IC50 values were calculated using nonlinear regression (GraphPad Prism 5 [GraphPad Software, San Diego, CA, 5.00]) by plotting the residual enzyme activities against the applied inhibitor concentration.

A further data set concerns HepG2 cells. Briefly: Cytotoxicity, MTS cell viability assay, HepG2. The data set is classed as cell-based, human. The following applies: 24 h, read-out: LC50 (cell viability, MTS). The protocol:
(§4) The human liver carcinoma HepG2 cell line was purchased from American Type Culture Collection (LGC Standards, UK). The human neuroblastoma SH-SY5Y cell line was purchased from American Type Culture Collection (CRL-2266, Manassas, VA). The cells were grown in Advanced Dulbecco’s modified Eagle’s medium (Sigma, St. Louis, MO) supplemented with 10% foetal bovine serum (FBS) (HyClone, Logan, UT), 2 mM L-glutamine, 50 U/mL penicillin and 50 μg/mL streptomycin (Sigma, St. Louis, MO) in a humidified atmosphere of 95% air and 5% CO2 at 37 °C, and grown to 80% confluence. Compound 3 was prepared as a stock solution of 20 mM in DMSO and was used at concentrations of 1–100 µM in case of HepG2 treatment, and at concentrations of 0.25–5 µM in case of SH-SY5Y treatment.
(§5) HepG2 and SH-SY5Y cells were seeded in 96-well plates (2 × 10^4/well) and assessed by MTS ([3–(4,5-dimethylthiazol-2-yl)-5–(3-carboxymethoxyphenyl)-2–(4-sulfophenyl)-2H-tetrazolium, inner salt) assay for their response to compound 3. Cells were treated as described above, and cell viability was assessed after 24 h using the CellTiter 96® Aqueous One Solution Cell Proliferation Assay (Promega, Madison, WI), following the manufacturer’s instructions. Absorbance was measured with an automatic microplate reader (Tecan Safire, Switzerland) at a wavelength of 492 nm.
On the technique in general: Tetrazolium assays rely on reduction of a dye to a coloured formazan, in cell work by metabolically active cells.

In the next data set the test system is SH-SY5Y cells. The data set can be described thus: Cytotoxicity, MTS cell viability assay, SH-SY5Y. As to conditions: 24 h, read-out: LC50 (cell viability, MTS). The data set is classed as cell-based, human. The protocol: as §4, §5
The target of the next data set is h5-HT6. Further details: method as in PMID 27560283, PMID 29384656. As to conditions: read-out: 5-HT6 Ki; cited from earlier work.
Data set [3] concerns the target T1, tau. Further details: method as in di Pietro et al. 38. As to conditions: at 10 µM; ref di Pietro et al. 38; cited from earlier work.
Data set [4] concerns the target T2, Aβ42. More on the design: method as in di Pietro et al. 38. The following applies: at 10 µM; ref di Pietro et al. 38; cited from earlier work.

pIC50, pKi: −log10 of the molar value. Several values for one entry are separate records, joined by “and”; a condition that tells them apart may be missing. Equal values may be shown once. Read-outs that look alike come from different tables or passages of the source. Marks after values point to notes of the source that are not given here.

T3 sequence (P56817 46-501): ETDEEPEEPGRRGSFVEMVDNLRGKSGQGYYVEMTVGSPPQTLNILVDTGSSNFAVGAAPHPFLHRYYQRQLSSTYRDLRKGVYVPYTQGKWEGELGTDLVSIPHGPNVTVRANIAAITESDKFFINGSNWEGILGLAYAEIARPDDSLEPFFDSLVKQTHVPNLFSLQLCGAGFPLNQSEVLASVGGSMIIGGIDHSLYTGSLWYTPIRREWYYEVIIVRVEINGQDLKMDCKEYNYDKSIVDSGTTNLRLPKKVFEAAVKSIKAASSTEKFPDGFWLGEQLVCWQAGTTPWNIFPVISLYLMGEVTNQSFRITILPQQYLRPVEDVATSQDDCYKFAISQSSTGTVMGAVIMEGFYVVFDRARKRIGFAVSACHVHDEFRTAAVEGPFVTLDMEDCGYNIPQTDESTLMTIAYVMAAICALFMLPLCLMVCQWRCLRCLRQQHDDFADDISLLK

For `c1ccc(Cn2ccc3c(N4CCN(CCNc5c6c(nc7ccccc57)CCCC6)CC4)cccc32)cc1` [Compound 17], the “In cellulo tau inhibition %” value at tau [1] was 59% and 58.6 ± 4.5%. Moreover, the “In cellulo Aβ42 inhibition %” value on Aβ42 [2] was 56% and 55.7 ± 2.8%. In addition, the negative logarithm of the IC50 (pIC50) in the data set with eqBuChE is 8.30; with hAChE it was 7.59; on human BACE1, 5.40 and 5.39.

`O=S(=O)(c1ccccc1)n1ccc2c(N3CCN(CCCCCCNc4c5c(nc6ccccc46)CCCC5)CC3)cccc21` [Compound 3]: the “In cellulo tau inhibition %” value on tau [1] is 38% and 37.6 ± 2.4%. Also, the “In cellulo Aβ42 inhibition %” value on Aβ42 [2] is 30% and 29.7 ± 4.0%. Moreover, the values for the CC50 in the data set on HepG2 cells and with SH-SY5Y cells were 6400 nM and 1000 nM, respectively. Moreover, the pIC50 in the data set on eqBuChE is 8.10; with hAChE it was 7.89; at human BACE1, 5.14. Besides, the pKi at h5-HT6 is 8.70.

Consider `O=C(NCCCCCCCCNc1c2c(nc3cc(Cl)ccc13)CCCC2)c1ccc2nc(-c3ccc(Cl)cc3)c3c(c2c1)NCCC3` [DP-128], for which the “In cellulo tau inhibition %” value on tau [3] is listed as 68.7 ± 0.5^d %. On Aβ42 [4], the “In cellulo Aβ42 inhibition %” value is reported as 77.5 ± 0.9^d %.
